The experiment addresses T1, NHE3 (Homo sapiens, UniProt P48764).
T1 sequence (P48764 26-834): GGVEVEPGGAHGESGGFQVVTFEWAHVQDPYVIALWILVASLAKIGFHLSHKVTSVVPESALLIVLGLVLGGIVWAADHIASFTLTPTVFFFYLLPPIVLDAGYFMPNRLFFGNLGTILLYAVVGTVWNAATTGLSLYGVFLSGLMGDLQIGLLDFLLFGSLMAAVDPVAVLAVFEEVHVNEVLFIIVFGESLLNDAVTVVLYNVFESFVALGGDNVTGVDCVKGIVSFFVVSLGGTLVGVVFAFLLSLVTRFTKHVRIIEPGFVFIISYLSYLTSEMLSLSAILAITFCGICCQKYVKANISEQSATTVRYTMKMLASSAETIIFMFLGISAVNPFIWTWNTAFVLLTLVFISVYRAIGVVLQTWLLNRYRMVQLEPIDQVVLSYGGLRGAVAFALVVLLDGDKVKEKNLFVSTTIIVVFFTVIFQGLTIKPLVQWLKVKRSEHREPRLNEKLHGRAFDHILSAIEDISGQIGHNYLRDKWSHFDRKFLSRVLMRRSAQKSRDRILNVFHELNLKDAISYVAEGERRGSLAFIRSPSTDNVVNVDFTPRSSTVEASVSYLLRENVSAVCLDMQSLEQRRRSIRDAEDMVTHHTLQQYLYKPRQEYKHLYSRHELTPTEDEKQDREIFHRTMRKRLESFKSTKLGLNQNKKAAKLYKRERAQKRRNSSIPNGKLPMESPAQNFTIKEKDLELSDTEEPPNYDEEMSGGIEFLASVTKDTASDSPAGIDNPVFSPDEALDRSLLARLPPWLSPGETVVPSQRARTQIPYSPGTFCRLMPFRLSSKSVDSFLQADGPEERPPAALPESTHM
The experiment is described as follows: Recovery of intracellular pH (pHi) after acidification, BCECF fluorescence, NHE3. It is filed as cell-based. As to conditions: inhibition of pH recovery after intracellular acidification; rate registered at three minutes for NHE3; bicarbonate-free. The procedure: Pharmacological Data: Test Description:
This test determines the recovery of the intracellular pH (pHi) after acidification, and this recovery occurs in the case of functional NHE even under bicarbonate-free conditions. To this end, the pHi was determined using the pH-sensitive fluorescent dye BCECF (Calbiochem, the BCECF-AM precursor was used). The cells were initially loaded with BCECF. The BCECF fluorescence was determined in a Ratio Fluorescence Spectrometer (Photon Technology International, South Brunswick, N.J., USA) at excitation wavelengths of 505 and 440 nm and an emission wavelength of 535 nm and converted to the pHi by means of calibration curves. The cells had already been incubated in NH4Cl buffer (pH 7.4) in the course of the BCECF loading (NH4Cl buffer: 115 mM NaCl, 20 mM NH4Cl, 5 mM KCl, 1 mM CaCl2, 1 mM MgSO4, 20 mM Hepes, 5 mM glucose, 1 mg/ml BSA; a pH of 7.4 was established using 1 M NaOH). The intracellular acidification was induced by adding 975 μl of an NH4Cl-free buffer (see below) to 25 μl aliquots of the cells incubated in NH4Cl buffer. The subsequent rate of the pH recovery was registered at 2 minutes for NHE1, at 5 minutes for NHE2 and at three minutes for NHE3. For the calculation of the inhibitory potency of the tested substances, the cells were initially investigated in buffers in which complete or absolutely no pH recovery took place. For complete pH recovery (100%), the cells were incubated in Na^+-containing buffer (133.8 mM NaCl, 4.7 mM KCl, 1.25 mM CaCl2, 1.25 mM MgCl2, 0.97 mM Na2HPO4, 0.23 mM NaH2PO4, 5 mM Hepes, 5 mM glucose, a pH of 7.0 was established using 1 M NaOH). For the determination of the 0% value, the cells were incubated in an Na^+-free buffer (133.8 mM choline chloride, 4.7 mM KCl, 1.25 mM CaCl2, 1.25 mM MgCl2, 0.97 mM K2HPO4, 0.23 mM KH2PO4, 5 mM Hepes, 5 mM glucose, a pH of 7.0 was established using 1 M NaOH). The substances to be tested were made up in the Na^+-containing buffer. The recovery of the intracellular pH at each tested concentration of a substance was expressed in percent of the maximum recovery. The percentages of the pH recovery were used to calculate the IC50 value of the particular substance for the individual NHE subtypes by means of the program Sigma-Plot.

SMILES strings stand for the structures. Structures can show the parent of a compound that is named as a salt.

For the compound `CN1Cc2c(Cl)cc(Cl)cc2C(c2cccc(C(=O)N[C@@H](CO)C(=O)O)c2)C1` (stereo partly drawn) [Example 16, (S)-2-[3-(6,8-dichloro-2-methyl-1,2,3,4-tetrahydroisoquinolin-4-yl)benzoylamino]-3-hydroxypropionic acid hydrochloride], the half-inhibitory concentration (IC50) stood at 159 nM.

In turn, `CN1Cc2c(Cl)cc(Cl)cc2C(c2cccc(NC(=O)[C@H](O)[C@@H](O)[C@H](O)[C@H](O)CO)c2)C1` (stereo partly drawn) [Example 2, N-[3-(6,8-dichloro-2-methyl-1,2,3,4-tetrahydroisoquinolin-4-yl)phenyl]-(2R,3S,4R,5R)-2,3,4,5,6-pentahydroxyhexanamide] came in with an IC50 of 3.6 nM.

The compound `CN1Cc2c(Cl)cc(Cl)cc2C(c2cccc(NC(=O)N[C@@H](CC(N)=O)C(=O)O)c2)C1` (stereo partly drawn) [Example 13, {N-[3-(6,8-dichloro-2-methyl-1,2,3,4-tetrahydroisoquinolin-4-yl)phenyl]-N′-(1-carboxy-4-aminocarboxy-2S-butyl)}urea hydrochloride] returned a half-maximal inhibitory concentration (IC50) of 17.6 nM.

Turning to `CN1Cc2c(Cl)cc(Cl)cc2C(c2ccc(NC(=O)[C@@H](N)CCCNC(=N)N)cc2)C1` (stereo partly drawn) [Example 31, N-[4-(6,8-dichloro-2-methyl-1,2,3,4-tetrahydroisoquinolin-4-yl)phenyl]-(S)-2-amino-5-guanidinopentanamide trifluoroacetate], the 50% inhibitory concentration (IC50) was determined as 29.1 nM. Against the preceding compound, the IC50 is about 1.7-fold higher.

By IC50 is commonly meant the concentration that gives 50% inhibition. A high value points to weaker potency in that assay.

Source of the values: US7241775B2, “Composition, process of making, and medical use of substituted 4-phenyltetrahydroisoquinolines” (Sanofi-Aventis Deutschland GmbH, priority 2003, dated 2007).
